Test results from PMC9970268 (Cancer Research Communications, 2022).
Where two headings read alike, the source gives them in different places. Values belong to the compound of their own block, whether it stands above or below them.

Columns and labels:
[1] = system: GFP-HER2-BM cells; assay: Cell viability (MTT) assay; type: cell-based, human
Procedure: (§1) Using CellTiter 96 Non-Radioactive Cell Proliferation Assay (Promega, Corp.) according to manufactures’ instructions, formazan was used as an indicator of viable cells at an absorbance 570 nm in a Tecan Microplate Reader M100 (Tecan). Data were calculated as fold change from vehicle and transformed to logarithm base 10. 0 concentration was replaced with 1 nmol/L to fit using the 4-parameter logic nonlinear regression model in GraphPad Prism software. (n = 3 biologic replicates: with three technical replicates each).
(§2) All half maximal growth inhibitory concentration (GI50) values were determined by using the 4-parameter logistic curve model in GraphPad Prism 9 software. Statistical analyses were done also using GraphPad Prism 9 software, and differences were considered statistically significant at P ≤ 0.05 using ordinary one-way ANOVA or unpaired Student t test with Dunnet multiple comparison tests.

[2] = system: GFP-HER2-BM cells; assay: Apoptosis assay (Caspase-Glo3/7); type: cell-based, human; settings: 500 nmol/L, 48 hours
Procedure: (§3) Apoptosis was measured using a Caspase-Glo3/7 Luminescence Assay Kit as per manufacturer's instructions (Promega, Corp.), as described previously ([23]). Briefly, Caspase-3/7 Glo reagent was added and incubated at room temperature for 60 minutes and caspase-3/7 activities were determined by detecting luminescence using Tecan Microplate Reader M100 (Tecan). Data were calculated as fold change from vehicle. (n = 3 biologic replicates: with three technical replicates each).

[3] = system: MDA-MB-468 cells; assay: Apoptosis assay (Caspase-Glo3/7); type: cell-based, human; settings: 500 nmol/L, 48 hours
Procedure: as §3

[4] = system: Cdc42; set-up: method as in PMID 23382385; settings: read-out: IC50, Cdc42 selective inhibitor; cited from earlier work
[5] = system: GFP-HER2-BM, MDA-MB-231, and MDA-MB-468 cancer cell lines; assay: Cell viability (MTT) assay, three cancer cell lines together; type: cell-based, human
Procedure: as §1

[6] = system: MDA-MB-231 cells; assay: Wound healing assay; type: cell-based, human; settings: 250 nmol/L; 12 and 24 hours
Procedure: MDA-MB-231 cells were plated on 12-well plates at equal cell density until confluent. Then the media was changed to 1% FBS, and a single scratch was made in the center of the monolayer culture with a pipet tip. Compounds were added immediately at 250 or 500 nmol/L and images were digitally acquired from a Keyence microscope (10×) at 0, 12, and 24 hours. The scratch area was quantified in ImageJ using the Macro Wound Healing Tool (http://dev.mri.cnrs.fr/projects/imagej-macros/wiki/Wound_Healing_Tool; n = 3 biologic replicates: with three technical replicates each).

[7] = system: Rac; settings: cited from earlier work
[8] = system: MCF10A cells; assay: Cell viability (MTT) assay; type: cell-based, human
Procedure: as §1, §2

[9] = system: MDA-MB-231 cells; assay: Cell viability (MTT) assay; type: cell-based, human
Procedure: as §1, §2

[10] = system: HMEC cells; assay: Cell viability (MTT) assay; type: cell-based, human; settings: 120 hours, 0 to 1,000 nmol/L
Procedure: as §1

[11] = system: MDA-MB-468 cells; assay: Cell viability (MTT) assay; type: cell-based, human; settings: 500 nmol/L, 72 hours
Procedure: as §1

[12] = system: MCF7 breast cancer cells; assay: Cell viability (MTT) assay; type: cell-based, human; settings: 250 nmol/L, 120 hr
Procedure: as §1
Supplementary Figure S1. Percentage cell viability of MDA-MB-231, GFP-HER2-BM, […]
nM for 120 hr. The bar graphs are presented as individual fold change data points from vehicle and grouped mean ± SEM. (n = 3; *, P < 0.05; ** P < 0.01).
(1 picture or pasted object on this page, not shown here)

[13] = system: MDA-MB-231 cells; assay: Apoptosis assay (Caspase-Glo3/7); type: cell-based, human; settings: 500 nmol/L, 48 hours
Procedure: as §3

[14] = system: MDA-MB-231, GFP-HER2-BM, and MDA-MB-468 cells; assay: Apoptosis assay (Caspase-Glo3/7), cell line not specified; type: cell-based, human; settings: 500 nmol/L, 48 hours
Procedure: as §3

[15] = system: MDA-MB-231 cells; assay: Phalloidin staining of F-actin, cell phenotype; type: cell-based, human; settings: 250 nmol/L, 12 hours
Excerpt: Cells were fixed, permeabilized, and stained with rhodamine phalloidin to visualize F-actin as described previously ([23]). Fluorescence micrographs were acquired at 40× in a Keyence fluorescence microscope.

[16] = system: A549 lung cancer cells; assay: EGF-induced ruffle formation; type: cell-based, human; settings: 24 hours, then EGF 200 ng/mL
Procedure: Cells were fixed with 4% formaldehyde and F-actin stained with rhodamine phalloidin. Slides were visualized by fluorescence microscopy and five random fields were scored for the number of ruffles. Ruffle area was measured by thresholding for single intensity using ImageJ/Fiji software, as in ref. [29].

[17] = biological target: T1, Rac1(G15A) interaction with Vav2 (Homo sapiens, UniProt P63000, G15A); assay: Rac1 (G15A) pulldown assay, Vav2; type: binding; settings: for potency relative to EHop-016 (parent compound): Vav/Rac inhibitor
T1 construct: purchased Cell Biolabs; host or cells: GEF from MDA-MB-231 lysate
Procedure: MDA-MB-231 cells were lysed in 1% Triton X-100, 20 mmol/L HEPES, pH 7.4, 150 mmol/L NaCl, 5 mmol/L MgCl2, and protease inhibitors, and processed as described previously ([20]). Equal amounts of protein from cleared lysates were incubated for 1 hour at 4°C with glutathione-agarose beads conjugated to GST-Rac1 and GST-Cdc42(G15A) nucleotide-free mutant (Cell Biolabs) that were preincubated (for 1 hour) with vehicle or Rac/Cdc42 inhibitors, as indicated. The beads were washed, and pulldowns were immunoblotted for Vav2 or Ect2.

[18] = biological target: Rac1 (Homo sapiens, UniProt P63000); assay: Rac activation pulldown assay in MDA-MB-231 cells; settings: MDA-MB-231, read-out: inhibition of Rac1 activity, MDA-MB-231, 250 nmol/L, 24 hours
[19] = biological target: Rac1B splice variant (Homo sapiens, UniProt P63000); assay: Rac1B activation pulldown assay in MDA-MB-468 cells; settings: MDA-MB-468, read-out: inhibition of Rac1B activation, MDA-MB-468, 500 nmol/L, 24 hours
[20] = biological target: T2, CYP2C19 (Homo sapiens, UniProt P33261); assay: CyP450 enzyme assay (P450-Glo); type: in vitro ADME
T2 construct: purchased Promega
Procedure: (§4) The assay was carried out using P450-Glo Screening System (Promega). The system contained recombinant human CYP enzyme and P450 reductase (and cytochrome b5 for CYP2C9, 2C19, and 3A4), luminogenic substrates appropriate for each CYP enzyme, a NADPH regeneration system (containing NADP+), and luciferin detection reagent. […] These compounds and organic solvents acetonitrile, and DMSO were purchased from Sigma-Aldrich.
(§5) First, 12.5 μL of the 4X stock solution of test compounds or positive controls (appropriate for each enzyme) were added to the “treated” wells. For the “untreated” (the values from these wells represent total CYP activity) and “minus-P450 control” wells (the values from these wells represent the CYP-independent background luminescence of the assay), 12.5 μL of vehicle was added. Then, 12.5 μL of the 4X control reaction mixture (containing membrane preparations devoid of CYP enzymes, the appropriate luminogenic substrate, and potassium phosphate buffer) were added to the minus-P450 control wells, and 12.5 μL of the 4X reaction mixture (containing human CYP membrane preparations, the appropriate luminogenic substrate, and potassium phosphate buffer) were added to all other wells. The plates were preincubated at room temperature for 10 minutes with the reaction mixture (membrane with enzyme, substrate, and 1 mol/L potassium phosphate buffer), and then 2X NADPH regeneration system was added to initiate the reaction. After incubation at room temperature for 30 minutes, 50 μL of the Luciferin Detection Reagent was added to stop the reaction and generate the luminescent signal. Before reading, the plate was incubated at room temperature for 20 minutes to stabilize the luminescent signal. The luminescence was measured using an Infinite F200 plate reader (Tecan). […] The percentage of CYP enzyme activity versus log concentration of test compounds were plotted to calculate the IC50 values.

[21] = biological target: T3, CYP2C9 (Homo sapiens, UniProt P11712); assay: CyP450 enzyme assay (P450-Glo); type: in vitro ADME; settings: recombinant human CYP enzyme, 0.001–100 μmol/L
T3 construct: purchased Promega
Procedure: as §4, §5

[22] = biological target: T4, CYP3A4 (Homo sapiens, UniProt P08684); assay: CyP450 enzyme assay (P450-Glo); type: in vitro ADME; settings: recombinant human CYP enzyme, 0.001–100 μmol/L
T4 construct: purchased Promega
Procedure: as §4, §5

[23] = system: Rac1; set-up: method as in PMID 15128949; settings: inhibits Rac1 binding and activation by the GEFs Trio and Tiam1; cited from earlier work

T2 sequence (P33261 whole entry): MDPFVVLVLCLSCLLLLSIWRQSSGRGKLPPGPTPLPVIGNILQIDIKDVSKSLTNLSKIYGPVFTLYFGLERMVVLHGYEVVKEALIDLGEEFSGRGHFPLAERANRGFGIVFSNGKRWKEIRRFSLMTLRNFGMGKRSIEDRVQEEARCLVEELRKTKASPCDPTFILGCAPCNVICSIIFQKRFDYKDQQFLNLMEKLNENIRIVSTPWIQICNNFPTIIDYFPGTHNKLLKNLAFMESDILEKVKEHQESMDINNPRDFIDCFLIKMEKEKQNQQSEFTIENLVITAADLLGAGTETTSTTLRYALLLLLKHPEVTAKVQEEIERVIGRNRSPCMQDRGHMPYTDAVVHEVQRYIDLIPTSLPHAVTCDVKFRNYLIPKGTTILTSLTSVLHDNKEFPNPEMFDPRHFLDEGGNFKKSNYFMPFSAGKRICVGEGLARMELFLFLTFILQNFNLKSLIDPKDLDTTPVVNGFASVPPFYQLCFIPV
T4 sequence (P08684 whole entry): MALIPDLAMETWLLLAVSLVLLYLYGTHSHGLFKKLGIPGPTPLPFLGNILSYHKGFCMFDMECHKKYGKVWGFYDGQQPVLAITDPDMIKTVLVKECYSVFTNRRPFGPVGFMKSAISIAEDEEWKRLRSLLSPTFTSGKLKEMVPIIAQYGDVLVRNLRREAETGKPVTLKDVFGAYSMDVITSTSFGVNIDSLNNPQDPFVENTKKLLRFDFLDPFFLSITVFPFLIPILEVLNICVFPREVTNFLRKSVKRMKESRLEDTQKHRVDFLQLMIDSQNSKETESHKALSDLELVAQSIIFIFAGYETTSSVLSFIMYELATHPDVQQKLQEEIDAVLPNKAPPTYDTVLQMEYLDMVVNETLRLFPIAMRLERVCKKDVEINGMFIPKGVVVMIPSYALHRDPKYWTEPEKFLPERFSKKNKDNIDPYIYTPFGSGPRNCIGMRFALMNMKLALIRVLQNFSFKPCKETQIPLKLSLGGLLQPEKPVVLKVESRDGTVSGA
T3 sequence (P11712 whole entry): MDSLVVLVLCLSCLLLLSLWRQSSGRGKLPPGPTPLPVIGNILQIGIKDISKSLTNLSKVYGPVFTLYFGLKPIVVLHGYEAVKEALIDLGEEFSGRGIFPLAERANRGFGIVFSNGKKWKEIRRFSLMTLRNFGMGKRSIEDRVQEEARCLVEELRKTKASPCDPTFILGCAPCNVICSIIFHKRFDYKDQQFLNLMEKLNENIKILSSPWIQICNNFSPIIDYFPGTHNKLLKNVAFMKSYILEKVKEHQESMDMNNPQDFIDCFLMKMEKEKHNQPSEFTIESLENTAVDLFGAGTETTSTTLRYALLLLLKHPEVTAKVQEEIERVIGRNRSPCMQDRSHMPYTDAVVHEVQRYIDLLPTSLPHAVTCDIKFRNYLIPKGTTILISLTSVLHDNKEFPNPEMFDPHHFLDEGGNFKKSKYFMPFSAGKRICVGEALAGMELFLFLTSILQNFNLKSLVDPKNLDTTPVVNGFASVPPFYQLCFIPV

SMILES: CCn1c2ccccc2c2cc(-n3nnc(C(O)c4cccnc4)c3-c3ccccc3)ccc21 (stereo not drawn) [EHop-040]
inhibition of cell viability ([1]; 500 nmol/L, 72 hours): 80%
Caspase-3/7 activity [2]: significantly increased Caspase-3/7 activity
Caspase-3/7 activity [3]: significantly increased Caspase-3/7 activity

SMILES: COc1ccc(C2=NN(c3ccc(S(N)(=O)=O)cc3)C(c3ccccc3)C2)cc1 (stereo not drawn) [ML141]
IC50 [4]: 3000 to 5000 nM

SMILES: CCn1c2ccccc2c2cc(-n3nncc3-c3ccccn3)ccc21 [MBQ-170]
effect on viability of cancer cells [5]: did not affect the viability of cancer cells
wound closure [6]: wound was closed in 24 hours

SMILES: O=C(C#Cc1ccccc1)c1cccc([N+](=O)[O-])c1 [MLS000532223]
IC50 [7]: > 10000 nM

GI50 ([9]; Homo sapiens, MDA-MB-231, 120 hours, 0 to 1,000 nmol/L): 327 nM
Rac1(G15A) interaction with Vav2 ([17]; 250 nmol/L, 1 hour preincubation, MDA-MB-231 cell lysates): blocked the interaction
efficacy compared with EHop-016 at 8 μmol/L ([17]; EHop-097 at 250 nmol/L): 4 X
potency relative to EHop-016 (parent compound) [17]: 10–30 ×
potency relative to EHop-016 (parent compound) ([17]; listed as Ehop-097): 10 ×
inhibition at 0.25 µM [18]: ~85%
inhibition at 0.5 µM [19]: ~60%
SMILES: CCn1c2ccccc2c2cc(-n3nnc(C(O)c4cccc(OC)c4)c3-c3ccccc3)ccc21 (stereo not drawn) [EHop-097]
inhibition of cell viability ([1]; 250 nmol/L, 120 hr): approximately 60%
inhibition of cell viability ([1]; 500 nmol/L, 72 hours): 80%
GI50 ([1]; Homo sapiens, 120 hours, 0 to 1,000 nmol/L): 261 nM
inhibition of cell viability ([8]; 250 nmol/L, 120 hr): not effective
GI50 ([8]; Homo sapiens, MCF-10A, 120 hours, 0 to 1,000 nmol/L): 335 nM
inhibition of cell viability ([9]; 250 nmol/L, 120 hr): not effective
inhibition of cell viability ([9]; 500 nmol/L, 72 hours): 50%
effect on viability of HMECs [10]: did not affect the viability of HMECs
inhibition of cell viability [11]: nonstatistically significant trend
inhibition of cell viability [12]: not effective
Caspase-3/7 activity [2]: significantly increased Caspase-3/7 activity
Caspase-3/7 activity [13]: significantly increased Caspase-3/7 activity
caspase-3/7 activity compared with the vehicle [14]: three to five times
wound closure [6]: wound area was maintained at 12 and 24 hours
cell phenotype, actin cytoskeleton [15]: smaller and less spread but did not have the characteristic loss of polarity
loss in ruffles ([16]; 500 nmol/L): 33%
decrease in ruffles ([16]; 1,000 nmol/L): 58%

SMILES: O=c1cc(CN2CCOCC2)occ1OCCCCCSc1ccnc2cc(C(F)(F)F)ccc12 [EHT1864]
IC50 [7]: > 10000 nM

IC50 ([20]; recombinant human CYP enzyme, 0.001–100 μmol/L): 12400 nM
IC50 [21]: 1550 nM
IC50 [22]: 8040 nM
SMILES: CCn1c2ccccc2c2cc(-n3nncc3-c3cccnc3)ccc21 [MBQ-171]
inhibition of cell viability ([1]; 500 nmol/L, 72 hours): approximately 75%

SMILES: CCn1c2ccccc2c2cc(Nc3ccnc(NCCCN4CCOCC4)n3)ccc21 [EHop-016]
IC50 ([7]; blocking the interaction of Rac with the GEF Vav): 1100 nM

SMILES: CCn1c2ccccc2c2cc(-n3nnc(C(O)c4ccco4)c3-c3ccccc3)ccc21 (stereo not drawn) [EHop-098]
inhibition of cell viability ([1]; 500 nmol/L, 72 hours): 80%

CYP2C19 IC50, fold lower than the IC50 for the positive control [20]: approximately 6 fold
IC50 at 30 min ([20]; human, recombinant human CYP enzyme, 0.001–100 μmol/L): 580 nM
IC50 [21]: 870 nM
IC50 [22]: 3310 nM
SMILES: CCn1c2ccccc2c2cc(-n3nncc3-c3cccc(C)c3)ccc21 [MBQ-169]
inhibition of cell viability ([1]; 500 nmol/L, 72 hours): approximately 75%
Caspase-3/7 activity [2]: significantly increased Caspase-3/7 activity
